Measured values: patent US8476261B2, “Spirocyclic aminoquinolones as GSK-3 inhibitors” (Kyorin Pharmaceutical Co., Ltd., priority 2007, dated 2013)

Target: T1, recombinant full-length human GSK3β (Homo sapiens, UniProt P49841)
T1 construct: recombinant full-length human GSK3β (Upstate); purchased Upstate
Assay: cell-free GSK3 kinase assay (KinaseGlo luciferase)
Format: biochemical
Settings: Table 1; 5 μM ATP, 1 hour at 30 degrees Celsius
Experimental: Proceed to KinaseGlo luciferase reaction.
Following the completion of the kinase reaction an equal volume of KinaseGlo luciferase reagent (Promega) is added and the luminescence read using a luminescence plate reader within 5-10 minutes.

T1 sequence (P49841 whole entry): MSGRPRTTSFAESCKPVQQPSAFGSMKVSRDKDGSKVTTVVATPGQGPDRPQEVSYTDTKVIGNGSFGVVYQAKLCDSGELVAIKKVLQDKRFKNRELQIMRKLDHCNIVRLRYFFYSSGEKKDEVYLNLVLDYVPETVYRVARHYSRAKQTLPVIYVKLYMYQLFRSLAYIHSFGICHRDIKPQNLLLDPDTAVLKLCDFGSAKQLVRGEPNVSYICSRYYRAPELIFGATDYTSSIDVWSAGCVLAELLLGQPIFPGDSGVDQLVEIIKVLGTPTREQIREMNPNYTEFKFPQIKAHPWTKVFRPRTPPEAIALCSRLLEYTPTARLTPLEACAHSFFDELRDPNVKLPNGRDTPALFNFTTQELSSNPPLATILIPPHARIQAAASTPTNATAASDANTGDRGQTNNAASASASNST

| SMILES | IC50 [nM] |
| --- | --- |
| CC(COc1ccc(Cl)cc1)Nc1c(F)c(N)c2c(=O)c(C(=O)O)cn3c2c1OCC31CCCC1 (stereo not drawn) [Compound 74] | > 150 |
| Nc1c(F)c(NCCOc2ccc(-c3ccccc3)cc2)c2c3c1c(=O)c(C(=O)O)cn3C1(CCCC1)CO2 [Compound 75] | > 150 |
| Nc1c(F)c(NCCSc2nc3ccccc3[nH]2)c2c3c1c(=O)c(C(=O)O)cn3C1(CCCC1)CO2 [Compound 76] | > 150 |
| Nc1c(F)c(N[C@H]2CC[C@H](n3ccnc3)C2)c2c3c1c(=O)c(C(=O)O)cn3C1(CCCC1)CO2 [Compound 77] | < 15 |
| Nc1c(F)c(N[C@H]2CC[C@H](c3ccccn3)C2)c2c3c1c(=O)c(C(=O)O)cn3C1(CCCC1)CO2 [Compound 78] | < 15 |
| Nc1c(F)c(N[C@@H]2CC[C@H](c3ccccn3)C2)c2c3c1c(=O)c(C(=O)O)cn3C1(CCCC1)CO2 [Compound 79] | > 150 |
| Nc1c(F)c(NCCCc2ccncc2)c2c3c1c(=O)c(C(=O)O)cn3C1(CCCC1)CO2 [Compound 80] | < 15 |
| N#Cc1ccc(CCCNc2c(F)c(N)c3c(=O)c(C(=O)O)cn4c3c2OCC42CCCC2)nc1 [Compound 81] | < 15 |
| Nc1c(F)c(NCCNc2ccccn2)c2c3c1c(=O)ccn3C1(CCC1)CCO2 [Compound 82] | 16 to 60 |
| Nc1c(F)c(NCCCc2ccccn2)c2c3c1c(=O)ccn3C1(CCC1)CCO2 [Compound 83] | 61 to 150 |
| Nc1c(F)c(NCCCn2ccnc2)c2c3c1c(=O)ccn3C1(CCC1)CCO2 [Compound 84] | < 15 |
| Nc1c(F)c(NCCCc2ccccn2)c2c3c1c(=O)ccn3C1(CCCC1)CO2 [Compound 85] | 16 to 60 |
| NC(=O)c1cn2c3c(c(NCCNc4ccccn4)c(F)c(N)c3c1=O)OCCC21CCC1 [Compound 86] | < 15 |
| NNC(=O)c1cn2c3c(c(NCCNc4ccccn4)c(F)c(N)c3c1=O)OCCC21CCC1 [Compound 88] | < 15 |
| Nc1c(F)c(NCCNc2ccccn2)c2c3c1c(=O)c(C(=O)NO)cn3C1(CCC1)CCO2 [Compound 89] | < 15 |
| CNC(=O)c1cn2c3c(c(NCCNc4ccccn4)c(F)c(N)c3c1=O)OCCC21CCC1 [Compound 90] | > 150 |
| N#Cc1cn2c3c(c(NCCNc4ccccn4)c(F)c(N)c3c1=O)OCCC21CCC1 [Compound 91] | 16 to 60 |
| N#Cc1cn2c3c(c(NCCCn4ccnc4)c(F)c(N)c3c1=O)OCCC21CCC1 [Compound 93] | 16 to 60 |
| Cc1c(C(=O)O)c(=O)c2c(N)c(F)c(NCCNc3ccccn3)c3c2n1C1(CCC1)CCO3 [Compound 94] | 16 to 60 |
| Nc1c(Cl)c(NCCNc2ccccn2)c2c3c1c(=O)c(C(=O)O)cn3C1(CCC1)CCO2 [Compound 95] | 61 to 150 |
| Nc1c(F)c(NCCCn2ccnc2)c2c3c1c(=O)c(C(=O)O)cn3C1(CCCC1)CO2 [Compound 96] | < 15 |
| Nc1c(F)c(NCCCn2ccnc2)c2c3c1c(=O)c(C(=O)O)cn3C1(CCC1)CCO2 [Compound 97] | 16 to 60 |
| Nc1c(F)c(N2CCC(Nc3ccccn3)C2)c2c3c1c(=O)c(C(=O)O)cn3C1(CCCC1)CO2 (stereo not drawn) [Compound 98] | > 150 |
| Cc1cc(=O)c2c(N)c(F)c(NCCNc3ccccn3)c3c2n1C1(CCC1)CCO3 [Compound 99] | > 150 |
